{
  "source": "paper PMC7162859",
  "about": "(Scientific Reports, 2020)",
  "key": {"[1]": {"tested_on": "Bcrp", "set-up": "method as in PMID 15930306", "conditions": "read-out: EC50 (Bcrp inhibition); cited from earlier work"}, "[2]": {"set-up": "method as in PMID 23334925", "conditions": "following ip dosing; cited from earlier work"}, "[3]": {"tested_on": "orthotopic GBM1A tumors", "test": "Pharmacodynamics: monopolar spindle formation in orthotopic GBM1A tumors", "format": "in vivo, NSG mice", "conditions": "single ip dose 10 mg/kg each drug; 8 hours", "experimental": "Female NSG mice were intracerebrally injected with 500,000 GBM1A cells at coordinates X = 1.5 mm, Y = 1.5 mm and Z = 2.5 mm relative to the bregma, and tumor growth was monitored by bioluminescence imaging. After 4 weeks (tumor size of about 2 × 10^9 photons/sec), animals were randomized to receive single ip dose of microemulsion vehicle, 10 mg/kg elacridar, 10 mg/kg ispinesib, or a combination of 10 mg/kg ispinesib and 10 mg/kg elacridar (n = 8–10). At 8 hours following treatment, mice were perfused and whole brains were isolated. The samples were processed for immunofluorescence by staining for tubulin with an alpha-tubulin antibody (Cell signaling, Cat#2125) and counter staining with DAPI for visualizing nuclei. Images were scanned and counted for cells with monopolar spindles."}, "[4]": {"tested_on": "orthotopic GBM1A tumors", "format": "in vivo", "conditions": "10 mg/kg ip each drug once every 4 days for 28 days", "experimental": "Female NSG mice were intracranially implanted with 500,000 luciferase expressing GBM1A cells (transduced with lentiviral particles expressing GFP-Luciferase). After 7 days, animals were randomized into four groups and ip administered with microemulsion vehicle, 10 mg/kg elacridar, 10 mg/kg ispinesib, or a combination of 10 mg/kg ispinesib and 10 mg/kg elacridar, once every 4 days for 28 days (n = 10). The dosing schedule of once every 4 days was based on our previously publication with ispinesib. Tumor growth was monitored by bioluminescence imaging and animals were followed for survival.\nThe progression of tumor growth was monitored by bioluminescence imaging (BLI) using an IVIS system. Mice that underwent stereotactic injection with GFP-luciferase expressing GBM1A cells were imaged twice a week. Ten minutes prior to imaging, mice were intraperitoneally injected with d-luciferin at 75 mg/kg body weight (3 mL/kg injection volume). Animals were immobilized using 1.5% − 3.0% isoflurane provided by nose cones within the imager and were kept warm using a heated stage set at 37 °C during the imaging procedure. Following imaging for about 5 minutes, animals were removed from the IVIS chamber and monitored until they fully recovered from anesthesia."}, "[5]": {"tested_on": "P-gp", "conditions": "read-out: EC50 (P-gp inhibition); cited from earlier work"}},
  "data": [
    {"smiles": "COc1cc2c(cc1OC)CN(CCc1ccc(NC(=O)c3cccc4c(=O)c5cccc(OC)c5[nH]c34)cc1)CC2", "note": "[Elacridar, N-[4-[2-(6,7-dimethoxy-3,4-dihydro-1H-isoquinolin-2-yl)ethyl]phenyl]-5-methoxy-9-oxo-10H-acridine-4-carboxamide]", "values": [
      {"measurement": "EC50", "setting": "[1]", "value": "~300", "unit": "nM"},
      {"measurement": "half-life", "setting": "[2]", "value": 3.2, "unit": "h"},
      {"measurement": "monopolar spindles in tumor core (tubulin/DNA staining)", "setting": "[3]", "value": "normal distribution of DNA"},
      {"measurement": "tumor doubling time (bioluminescence, single exponential fit)", "setting": "[4]; days 7–37", "value": 6.2, "unit": "days"},
      {"measurement": "median survival", "setting": "[4]; vehicle 61 days", "value": 62, "unit": "days"},
      {"measurement": "EC50", "setting": "[5]", "value": "[…]"}
    ]}
  ]
}
